Results: US20210349099A1, “CANCER BIOMARKERS AND METHODS OF USE THEREOF” (X4 Pharmaceuticals, Inc., priority 2017, published 2021)

Experiments:
in vivo = assay: in vivo
Procedure: In certain embodiments, the dosage composition may be provided twice a day in divided dosage, approximately 12 hours apart. In other embodiments, the dosage composition may be provided once daily. […] Dosage for oral administration may be from about 100 mg to about 1200 mg once or twice per day.

[1] = test system: melanoma tumor microenvironment (TME); assay: Multiplex immunofluorescence (mIF) immunophenotyping of melanoma biopsies; assay type: in vivo, human; settings: melanoma patient #5
Procedure: (§1) Formalin-fixed paraffin-embedded (FFPE) tissue sections were baked for 1 hour at 60° C. The slides were dewaxed and stained on a Leica BOND Rx stainer (Leica, Buffalo Grove, Ill.) using Leica Bond reagents for dewaxing (Dewax Solution), antigen retrieval and antibody stripping (Epitope Retrieval Solution 2), and rinsing after each step (Bond Wash Solution). A high stringency wash was performed after the secondary and tertiary applications using high-salt TBST solution (0.05 M Tris, 0.3M NaCl, and 0.1% Tween-20, pH 7.2-7.6). OPAL Polymer HRP Mouse plus Rabbit (PerkinElmer, Hopkington, Mass.) was used for all secondary applications.
Antigen retrieval and antibody stripping steps were performed at 100° C. with all other steps at ambient temperature. Endogenous peroxidase was blocked with 3% H2O2 for 8 minutes followed by protein blocking with TCT buffer (0.05 M Tris, 0.15 M NaCl, 0.25% Casein, 0.1% Tween 20, pH 7.6+/−0.1) for 30 minutes. The first primary antibody (position 1) was applied for 60 minutes followed by the secondary antibody application for 10 minutes and the application of the tertiary TSA-amplification reagent (PerkinElmer OPAL fluor) for 10 minutes. The primary and secondary antibodies were stripped with retrieval solution for 20 minutes before repeating the process with the second primary antibody (position 2) starting with a new application of 3% H2O2. The process was repeated until all 6 positions were completed; however, there was no stripping step after the 6th position. Slides were removed from the stainer and stained with Spectral DAPI (Perkin Elmer) for 5 minutes, rinsed for 5 minutes, and coverslipped with Prolong Gold Antifade reagent (Invitrogen/Life Technologies, Grand Island, N.Y.).
Slides were cured for 24 hours at room temperature, then representative images from each slide were acquired on PerkinElmer Vectra 3.0 Automated Imaging System. Images were spectrally unmixed using PerkinElmer inForm software and exported as multi-image TIFF's for analysis in HALO software (Indica Labs, Corrales, N. Mex.).
Cellular analysis of the images were then analyzed with HALO image analysis software (Indica Labs, Cooales, N. Mex.). After the cells were visualized based on nuclear recognition (DAPI stain), the software measured fluorescence intensity of the estimated cytoplasmic areas of each cell. A mean intensity threshold above background was used to determine positivity for each fluorochrome within the cytoplasm, thereby, defining cells as either positive or negative for each marker. The positive cell data was then used to define colocalized populations and to perform nearest neighbor spatial analysis.
Formalin-fixed paraffin-embedded melanoma samples were stained sequentially with a 6-component immunophenotyping antibody panel, including CD4, CD8, PD-1, PD-L1, macrophage cocktail (CD68+CD163), and FoxP3 (Tregs). DAPI was used as a nuclear counterstain. Antibodies were detected using HRP-catalyzed deposition of fluorescent tyramide substrates (Opal, Perkin-Elmer). Images were obtained using spectral imaging, autofluorescence subtraction and unmixing (Vectra 3.0, Perkin-Elmer), and analyzed using HALO™ image analysis software.
as §1, with “Tumor samples obtained from melanoma patients were formalin-fixed and” for “Formalin-fixed”, “(FFPE) according to known procedures. FFPE” for “(FFPE)”, “OPAL Polymer HRP Mouse plus Rabbit (PerkinElmer, Hopkington, Mass.) was used for all secondary applications.” left out

[2] = test system: melanoma, renal cell carcinoma, and ovarian cancer; settings: murine models; cited from earlier work

terminal half-life (in vivo): approximately 14.5 hrs
half-life (in vivo; terminal half-life): 12 to 24 h
SMILES: NCCCCN(Cc1nc2ccccc2[nH]1)[C@H]1CCCc2cccnc21 [X4P-001]
percentage of CD4 positive cells in the TME [1]: increased
percentage of CD8 positive cells in the TME [1]: increased
percentage of PD-1 positive cells in the TME [1]: increased
percentage of PDL-1 positive cells in the TME [1]: increased
percentage of Treg (FoxP3+) cells [1]: not altered
percentage of macrophages (CD68/CD163+) ([1]; printed 24.1% vs. 25.4%, not altered): 25.4%
anti-tumor activity [2]: significant anti-tumor activity, including decreased metastasis and increased overall survival
